Measurements as given in patent publication US8476408B2, “Unacylated ghrelin and analogs as therapeutic agents for vascular remodeling in diabetic patients and treatment of cardiovascular disease” (Alize Pharma SAS, priority 2008, dated 2013).
Where no end group is shown, it is not given here.

Tests used:
CAC [1] = assay: CAC senescence (acidic β-gal activity), cultured CAC; assay type: cell-based, human; conditions: FIG. 2A
Protocol: Peripheral-blood mononuclear cells (PB-MNC) isolated by Fycoll Histopaque 1077 (Sigma) were resuspended in 20% FBS 199 Medium and plated on fibronectin-coated dishes (Biocoat, Becton Dickinson Labware) as described by Hill et al. (Ref. 19). Human UAG studies were performed on CAC recovered from normal donors and diabetic patients. The purity of sorted cells was assessed by FACS analysis (Ref. 20). For experiments, the isolated CAC were cultured under 5% CO2 at 37° C. for 4 days on 20 μg/ml fibronectin-coated dishes in EGM-2 medium containing 10% FBS, hydrocortisone, human Fibroblast Growth Factor, Vascular Endothelial Growth Factor, Insulin Growth Factor 1, ascorbic acid, human Epidermal Growth Factor, gentamicin and amphotericin-B (Cambrex, Walkersville, Md., USA) alone or in combination with 1 μM UAG and 1.2 mg/ml AGE. In selected experiments, isolated CAC were cultured in EBM-2 medium (Cambrex, Walkersville, Md., USA) supplemented with 10 ng/ml of IL-3. FACS was used to analyze their phenotype (anti-CD45, anti-CD31, anti-CD105, anti-CD14 antibodies were used) (Ref. 22).
CAC Senescence—Senescence was evaluated by acidic β-gal activity on CAC recovered from normal subjects cultured in EGM2 medium for 4 days with UAG or AGE+UAG and saline- or UAG-treated diabetic patients (Ref. 22). […] SA-β-gal-positive cells were counted manually by 3 independent investigators.

CAC [2] = assay: CAC mobilization assay in diabetic and control mice; assay type: in vivo; conditions: FIG. 4B
Protocol: Diabetic and control mice—Mice were divided in four groups. The plasma glucose and insulin determination for each group are reported. Sixteen 6 weeks old ob/ob mice (blood glucose, 600±45 mg/dL, insulin, 5.5±0.9 ng/ml); sixteen C56BL6/J wild type mice (blood glucose, 150±18.2 mg/dL, insulin, 1±0.05 ng/ml); ten 7 weeks old NOD/SCID mice (blood glucose, 164±12.9 mg/dL, insulin 1.2±0.12 ng/ml); ten 17 weeks old NOD/SCID mice (blood glucose, 536±36.3 mg/dL, insulin 4.85±0.74 ng/ml). Animal procedures conformed to the Guide for Care and Use of […] (National Institutes of Health publication no. 93-23, revised 1985).
Isolation and Culture of CAC from C57BU6J, C57BL/6J ob/ob mice and NOD/SCID mice—6 weeks old C57BL/6J (wt) and ob/ob mice, 7 and 17 weeks old NOD/SCID mice were purchased from Charles River Lab (Lecco, Italy). Animals were anesthetized by intraperitoneal injection with Avertin (100 mg/50ml ip). Blood samples were drawn from left ventricular, as described by Hoff (Ref. 27). Peripheral blood MNC were isolated by Ficoll density-gradient centrifugation. […]
Mobilization assay—Mice were treated for 12 hours with UAG or saline. CAC recovered and purified as above described, were put in culture and counted by three independent investigators. The technical ratio of CAC was calculated by comparing the numbers of CAC/μL of blood drawn from left ventricular.

CAC [3] = assay: Senescence of CAC recovered from type 2 diabetic patients treated with UAG; set-up: species or system human; conditions: 12 hours of treatment in vivo, FIG. 2D
Protocol: All the subjects underwent the following testing session: • UAG (3.0 μg/kg/h iv. as infusion for 12 h from 0 to 12 hours); • isotonic saline (infusion from 0 to 12 hours).
All tests were performed starting at 08.30-09.00 a.m. after overnight fasting, 30 minutes after an indwelling catheter had been placed into a forearm vein by slow infusion of isotonic saline. Blood samples were taken at 0 h, 6 h and 12 h.
CAC Senescence—Senescence was evaluated by acidic β-gal activity on CAC recovered from normal subjects cultured in EGM2 medium for 4 days with UAG or AGE+UAG and saline- or UAG-treated diabetic patients (Ref. 22). Briefly, CAC were washed in phosphate-buffered saline, fixed for 3 min at room temperature in 2% paraformaldehyde, washed, and incubated for24 h at 37° C. with fresh SA-β-gal stain solution: 1 mg/ml 5-bromo-4-chloro-3-indolyl β-D-galactopyranoside (X-gal), 5 mM/liter potassium ferrocyanide, 5 mM/liter ferricyanide, 150 mM/liter NaCl, 2 mM/liter MgCl2, 0.01% sodium deoxycholate, and 0.02% Nonidet P-40. SA-β-gal-positive cells were counted manually by 3 independent investigators.

CAC [4] = assay: Arterial commitment of CAC recovered from treated mice (Q-RT-PCR); assay type: in vivo; conditions: CAC from UAG-challenged mice cultured with IL-3; FIG. 4D
Protocol: RNA isolation and quantitative real-time PCR—CAC from diabetic patients, healthy subjects and mice treated with UAG or saline were cultured in EGM-2 medium. Human arterial and venous cells were used as a positive controls. mRNA quantification was performed by Q-RT-PCR, as previously described (Ref. 24). The relative expression of Ephrin B2, Notch1, Notch4 and EphB4 were calculated by using comparative threshold cycle methods. The human and murine primer sequences used were described (Refs. 25, 26).
Isolation and Culture of CAC from C57BU6J, C57BL/6J ob/ob mice and NOD/SCID mice—6 weeks old C57BL/6J (wt) and ob/ob mice, 7 and 17 weeks old NOD/SCID mice were purchased from Charles River Lab (Lecco, Italy). Animals were anesthetized by intraperitoneal injection with Avertin (100 mg/50ml ip). Blood samples were drawn from left ventricular, as described by Hoff (Ref. 27). Peripheral blood MNC were isolated by Ficoll density-gradient centrifugation. Recovered cells were washed twice Isolated cells were resuspended and were cultured on 20 μg/ml fibronectin-coated dishes in EGM-2 BulletKit Medium. In selected experiments, the isolated CAC were cultured in EBM-2 medium supplemented with 10 ng/ml of IL-3.

GHSR-1a = GHSR-1a (Homo sapiens, UniProt Q92847); conditions: cited from earlier work
Chain of GHSR-1a (Q92847 whole entry): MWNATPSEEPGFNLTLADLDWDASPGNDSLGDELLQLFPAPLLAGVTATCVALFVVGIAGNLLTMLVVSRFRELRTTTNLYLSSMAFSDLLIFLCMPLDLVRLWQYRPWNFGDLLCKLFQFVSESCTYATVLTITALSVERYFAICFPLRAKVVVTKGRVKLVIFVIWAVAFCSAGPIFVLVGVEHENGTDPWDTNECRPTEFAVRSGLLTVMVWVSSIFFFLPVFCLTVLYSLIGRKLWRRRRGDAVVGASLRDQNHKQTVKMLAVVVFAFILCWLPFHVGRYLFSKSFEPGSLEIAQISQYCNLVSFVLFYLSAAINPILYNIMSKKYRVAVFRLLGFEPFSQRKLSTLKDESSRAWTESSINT

CAC [5] = assay: Matrigel-plug assay of de novo vessel formation by CAC from treated diabetic patients; assay type: in vivo, SCID mice
Protocol: Matrigel-plug assay—For murine angiogenesis assay, untreated or UAG-treated CAC, obtained from type 2 diabetic patients, were counted and resuspended in DMEM (4×10^6 in 250 μL DMEM). Cells were chilled in ice, labelled with fluorescent dye carboxyfluorescein diacetate succinimidyl ester (CSFE, Molecular Probes), added to 250 μL Matrigel containing of IL-3 (100 ng/ml) at 4° C., and injected sc. in the abdominal paramedian region of 7 week old NOD/SCID mice (5 mice per group). After 15 days, mice were killed and Matrigel plugs were recovered, fixed in 10% buffered formalin and embedded in paraffin for immunohistochemistry.
Immunohistochemistry and immunofluorescence—For immunohistochemistry, sections from paraffin-embedded blocks of Matrigel plugs were collected onto poly-lysine-coated slides. Endogenous peroxidase activity was blocked with 6% H2O2 for 8 minutes at room temperature. To detect cells labelled with fluorescent dye CSFE, anti-Fluorescein/Oregon Green polyclonal Abs (Molecular Probes) were applied to slides overnight at 4° C. […] The percentage of positive cells was counted in 4 non-sequential sections for each experiment at ×40 magnification. […] The number of MHC II or HLA I positive vessels was determined by counting 10 randomly selected fields in three different samples.

human arteries = conditions: Ref. 35; cited from earlier work

Substance: 1-NH2Gly-Ser-Ser-Phe-Leu-Ser-Pro-Glu-His-Gln-Arg-Val-Gln-Gln-Arg-Lys-Glu-Ser-Lys-Lys-Pro-Pro-Ala-Lys-Leu-Gln-Pro-Arg-28 (GSSFLSPEHQRVQQRKESKKPPAKLQPR; ends and bridges not checked; listed as Homo sapiens) [UAG]
- number of senescent cells (SA-β-gal activity) (CAC [1]; CAC cultured with UAG alone): reduce the number of senescent cells
- number of SA-β-gal positive cells (CAC [1]; UAG added to AGE-cultured CAC): significant reduction in the number of SA-β-gal positive cells
- percentage of recovered cells (CAC [2]; diabetic NOD/SCID mice): increase the percentage of recovered cells
- number of recovered cells relative to untreated wild type mice (CAC [2]; ob/ob mice): fully restores the number of CAC to normal physiological levels
- number of senescent cells (CAC [3]): reduced the number of senescent cells
- arterial commitment of recovered CAC (CAC [4]): acquire arterial commitment
- binding to GHSR-1a (GHSR-1a): fails to bind GHSR-1a
- formation of functional vessels by labelled CAC (CAC [5]; CAC from UAG-treated diabetic patients, Matrigel plugs with IL-3, 15 days, FIG. 4E): formed functional vessels
- origin of neo-vessels (human HLA Class I vs mouse MHC II) (CAC [5]; immunofluorescence of Matrigel plugs, FIG. 4F): majority of vessels are lined by human HLA Class I positive cells
- vasodilator action (human arteries): vasodilator actions
